In patent US11802120B2, “Fused cyclic urea derivatives as CRHR2 antagonist” (RaQualia Pharma Inc., priority 2018, dated 2023):

Each compound was assayed against T1, human CRHR2-alpha (Homo sapiens, UniProt Q13324) (assay: cAMP functional assay for human CRHR2 (LANCE Ultra cAMP, TR-FRET)). Details: CHO-K1 cells expressing human CRHR2-alpha, agonist human urocortin2 at EC80, cAMP; read-out: IC50 against CRHR2.
T1 sequence (Q13324 1-411): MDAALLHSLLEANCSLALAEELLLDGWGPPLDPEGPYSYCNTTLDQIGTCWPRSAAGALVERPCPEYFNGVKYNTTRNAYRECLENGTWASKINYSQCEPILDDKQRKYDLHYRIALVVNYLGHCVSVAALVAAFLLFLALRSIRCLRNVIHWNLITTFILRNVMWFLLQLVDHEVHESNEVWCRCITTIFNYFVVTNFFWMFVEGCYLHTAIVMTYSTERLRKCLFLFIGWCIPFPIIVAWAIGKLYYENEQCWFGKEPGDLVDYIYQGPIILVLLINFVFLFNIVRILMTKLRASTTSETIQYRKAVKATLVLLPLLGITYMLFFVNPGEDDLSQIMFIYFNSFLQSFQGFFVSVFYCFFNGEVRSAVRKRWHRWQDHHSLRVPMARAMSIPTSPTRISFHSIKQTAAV
Type: cell-based
How it was run: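 CHO-K1 cells stably expressing each receptor, serum-starved and cryopreserved, were preincubated with compound 30 min at 25° C in HBSS buffer with 0.5 mM IBMX, pH 7.4, then stimulated 30 min with EC80 agonist (urocortin2 for CRHR2, CRF for CRHR1). cAMP read by TR-FRET; IC50 from percent-inhibition curves.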

Compound | IC50 [µM]
Cc1ncc(Cl)cc1C(=O)N[C@H]1CC[C@H](Cn2c(=O)n(-c3ccc4nnn(C)c4c3)c3ccccc32)CC1 [Example 232, 5-chloro-2-methyl-N-((1r,4r)-4-((3-(1-methyl-1H-benzo[d] [1,2,3]triazol-6-yl)-2-oxo-2,3-dihydro-1H-benzo[d]imidazol-1-yl)methyl)cyclohexyl) nicotinamide] | < 0.3
O=C(N[C@H]1CC[C@H](Cn2c(=O)n(-c3ccccc3Cl)c3ccncc32)CC1)c1cc(Cl)cnc1C(F)F [Example 367, 5-chloro-N-((1r,4r)-4-((1-(2-chlorophenyl)-2-oxo-1H-imidazo[4,5-c]pyridin-3(2H)-yl)methyl)cyclohexyl)-2-(difluoromethyl)nicotinamide] | < 0.3
Cc1ncc(Cl)cc1C(=O)N[C@H]1CC[C@H](Cn2c(=O)n(-c3ccc4c(cnn4C)c3)c3ccccc32)CC1 [Example 141, 5-chloro-2-methyl-N-((1r,4r)-4-((3-(1-methyl-1H-indazol-5-yl)-2-oxo-2,3-dihydro-1H-benzo [d]imidazol-1-yl)methyl)cyclohexyl)nicotinamide] | < 0.3
O=C(N[C@H]1CC[C@H](Cn2c(=O)n(-c3cnc4[nH]ccc4c3)c3ccccc32)CC1)c1cc(Cl)cnc1C(F)F [Example 455, 5-chloro-2-(difluoromethyl)-N-((1r,4r)-4-((2-oxo-3-(1H-pyrrolo[2,3-b]pyridin-5-yl)-2,3-dihydro-1H-benzo[d]imidazol-1-yl)methyl)cyclo-hexyl)nicotinamide] | < 0.3
Cc1ncc(Cl)cc1C(=O)N[C@H]1CC[C@H](Cn2c(=O)n(-c3ccc(-c4ccn(C)n4)cc3)c3ccccc32)CC1 [Example 447, 5-chloro-2-methyl-N-((1r,4r)-4-((3-(4-(1-methyl-1H-pyrazol-3-yl)phenyl)-2-oxo-2,3-dihydro-1H-benzo[d]imidazol-1-yl)methyl)cyclo-hexyl)nicotinamide] | < 0.3
O=C(N[C@H]1CC[C@H](Cn2c(=O)n(-c3ccccc3Cl)c3cnccc32)CC1)c1cc(Cl)cnc1C(F)F [Example 721, 5-chloro-N-((1r,4r)-4-((3-(2-chlorophenyl)-2-oxo-2,3-dihydro-1H-imidazo[4,5-c]pyridin-1-yl)methyl)cyclo-hexyl)-2-(difluoromethyl) nicotinamide] | < 0.3
Cc1ncc(Cl)cc1C(=O)N[C@H]1CC[C@H](Cn2c(=O)n(-c3ccc4c(C)nn(C)c4c3)c3ccccc32)CC1 [Example 191, 5-chloro-N-((1r,4r)-4-((3-(1,3-dimethyl-1H-indazol-6-yl)-2-oxo-2,3-dihydro-1H-benzo[d]imidazol-1-yl)methyl)cyclohexyl)-2-methylnicotinamide] | < 0.3
O=C(N[C@H]1CC[C@H](Cn2c(=O)n(-c3ccc(O[C@H]4CCOC4)nc3)c3ccccc32)CC1)c1cc(Cl)cnc1C(F)F [Example 430, 5-chloro-2-(difluoromethyl)-N-((1S,4r)-4-((2-oxo-3-(6-(((S)-tetrahydrofuran-3-yl)oxy)pyridin-3-yl)-2,3-dihydro-1H-benzo[d]imidazol-1-yl)methyl)cyclohexyl)nicotinamide] | < 0.3
Cc1ncc(Cl)cc1C(=O)N[C@H]1CC[C@H](Cn2c(=O)n(-c3ccc(C(=O)NCc4cocn4)nc3)c3ccccc32)CC1 [Example 179, 5-(3-(((1r,4r)-(5-chloro-2-methylnicotinamido)cyclo-hexyl)methyl)-2-oxo-2,3-dihydro-1H-benzo[d]imidazol-1-yl)-N-(oxazol-4-ylmethyl) picolinamide] | < 0.3
CNc1ccc(-n2c(=O)n(C[C@H]3CC[C@H](NC(=O)c4cc(Cl)cnc4C)CC3)c3c(F)cccc32)cn1 [Example 668, 5-chloro-N-((1r,4r)-4-((7-fluoro-3-(6-(methylamino)pyridin-3-yl)-2-oxo-2,3-dihydro-1H-benzo[d]imidazol-1-yl)methyl)cyclo-hexyl)-2-methylnicotinamide] | < 0.3
Cc1ncc(Cl)cc1C(=O)N[C@H]1CC[C@H](Cn2c(=O)n(-c3ccc(C(=O)NCc4ccon4)nc3)c3ccccc32)CC1 [Example 176, 5-(3-(((1r,4r)-4-(5-chloro-2-methylnicotinamido)cyclo-hexyl)methyl)-2-oxo-2,3-dihydro-1H-benzo[d]imidazol-1-yl)-N-(isoxazol-3-ylmethyl) picolinamide] | < 0.3
O=C(N[C@H]1CC[C@H](Cn2c(=O)n(-c3ccc(N4CCNC4=O)nc3)c3ccccc32)CC1)c1cc(Cl)cnc1C(F)(F)F [Example 640, 5-chloro-N-((1r,4r)-4-((2-oxo-3-(6-(2-oxoimidazolidin-1-yl)pyridin-3-yl)-2,3-dihydro-1H-benzo[d]imidazol-1-yl)methyl)cyclohexyl)-2-(trifluoromethyl) nicotinamide] | < 0.3
CCc1ccc(-n2c(=O)n(C[C@H]3CC[C@H](NC(=O)c4cc(Cl)cnc4C)CC3)c3ccccc32)cn1 [Example 72, 5-chloro-N-((1r,4r)-4-((3-(6-ethylpyridin-3-yl)-2-oxo-2,3-dihydro-1H-benzo[d]imidazol-1-yl)methyl)cyclohexyl)-2-methylnicotinamide] | < 0.3
Cc1ncc(Cl)cc1C(=O)N[C@H]1CC[C@H](Cn2c(=O)n(-c3cccc(-n4ccnc4)n3)c3ccccc32)CC1 [Example 520, N-((1r,4r)-4-((3-(6-(1H-imidazol-1-yl)pyridin-2-yl)-2-oxo-2,3-dihydro-1H-benzo[d]imidazol-1-yl)methyl)cyclo-hexyl)-5-chloro-2-methyl-nicotinamide] | < 0.3
CNc1ncc(-n2c(=O)n(C[C@H]3CC[C@H](NC(=O)c4cc(Cl)cnc4C(F)F)CC3)c3ccccc32)cc1C [Example 462, 5-chloro-2-(difluoromethyl)-N-((1r,4r)-4-((3-(5-methyl-6-(methylamino)pyridin-3-yl)-2-oxo-2,3-dihydro-1H-benzo [d]imidazol-1-yl)methyl)cyclo-hexyl)nicotinamide] | < 0.3
Cc1cc(OCCO)ncc1-n1c(=O)n(C[C@H]2CC[C@H](NC(=O)c3cc(Cl)cnc3C(F)(F)F)CC2)c2ccccc21 [Example 357, 5-chloro-N-((1r,4r)-4-((3-(6-(2-hydroxyethoxy)-4-methylpyridin-3-yl)-2-oxo-2,3-dihydro-1H-benzo[d]imidazol-1-yl)methyl)cyclohexyl)-2-(trifluoromethyl)nicotinamide] | < 0.3
CCn1nc2ccccc2c1C(=O)N[C@H]1CC[C@H](Cn2c(=O)n(-c3ccc(C(=O)NC)nc3)c3ccccc32)CC1 [Example 166, 2-ethyl-N-((1r,4r)-4-((3-(6-(methylcarbamoyl)pyridin-3-yl)-2-oxo-2,3-dihydro-1H-benzo [d]imidazol-1-yl)methyl)cyclo-hexyl)-2H-indazole-3-carboxamide] | < 0.3

Next, values leading:

IC50 [µM] | Compound
< 0.3 | Cn1ncc2cc(-n3c(=O)n(C[C@H]4CC[C@H](NC(=O)c5cc(Cl)cnc5C(F)F)CC4)c4cccnc43)ccc21 [Example 547, 5-chloro-2-(difluoromethyl)-N-((1r,4r)-4-((3-(1-methyl-1H-indazol-5-yl)-2-oxo-2,3-dihydro-1H-imidazo[4,5-b]pyridin-1-yl)methyl)cyclo-hexyl)nicotinamide]
< 0.3 | Cc1ncc(Cl)cc1C(=O)N[C@H]1CC[C@H](Cn2c(=O)n(-c3ccc(C(=O)Nc4cc[nH]n4)nc3)c3ccccc32)CC1 [Example 183, 5-(3-(((1r,4r)-4-(5-chloro-2-methylnicotinamido)cyclo-hexyl)methyl)-2-oxo-2,3-dihydro-1H-benzo[d]imidazol-1-yl)-N-(1H-pyrazol-3-yl) picolinamide]
< 0.3 | COc1ccc(F)c(-n2c(=O)n(C[C@H]3CC[C@H](NC(=O)c4cc(Cl)cnc4C(F)F)CC3)c3cnccc32)c1 [Example 726, 5-chloro-2-(difluoromethyl)-N-((1r,4r)-4-((1-(2-fluoro-5-methoxyphenyl)-2-oxo-1H-imidazo[4,5-c]pyridin-3(2H)-yl)methyl)cyclohexyl) nicotinamide]
< 0.3 | Cc1ncc(Cl)cc1C(=O)N[C@H]1CC[C@H](Cn2c(=O)n(-c3cccc4cccnc34)c3ccccc32)CC1 [Example 337, 5-chloro-2-methyl-N-((1r,4r)-4-((2-oxo-3-(quinolin-8-yl)-2,3-dihydro-1H-benzo[d]imidazol-1-yl)methyl)cyclo-hexyl)nicotinamide]
< 0.3 | Cc1ncc(Cl)cc1C(=O)N[C@H]1CC[C@H](Cn2c(=O)n(-c3ccnc(-c4cnco4)c3)c3ccccc32)CC1 [Example 521, 5-chloro-2-methyl-N-((1r,4r)-4-((3-(2-(oxazol-5-yl)pyridin-4-yl)-2-oxo-2,3-dihydro-1H-benzo[d]imidazol-1-yl)methyl)cyclohexyl)nicotinamide]
< 0.3 | Cc1ncc(Cl)cc1C(=O)N[C@H]1CC[C@H](Cn2c(=O)n(-c3ccc(N4CCCC(O)C4)nc3)c3ccccc32)CC1 (stereo partly drawn) [Example 95, 5-chloro-N-((1r,4r)-4-((3-(6-(3-hydroxypiperidin-1-yl)pyridin-3-yl)-2-oxo-2,3-dihydro-1H-benzo[d]imidazol-1-yl)methyl)cyclohexyl)-2-methylnicotinamide]
< 0.3 | Cc1nc2cc(-n3c(=O)n(C[C@H]4CC[C@H](NC(=O)c5cc(Cl)cnc5C)CC4)c4ccccc43)ccc2s1 [Example 645, 5-chloro-2-methyl-N-((1r,4r)-4-((3-(2-methylbenzo[d]thiazol-5-yl)-2-oxo-2,3-dihydro-1H-benzo[d]imidazol-1-yl)methyl)cyclohexyl) nicotinamide]
